# Reference: patent publication US20230132823A1, “BI-FUNCTIONAL COMPOUNDS AND METHODS FOR TARGETED UBIQUITINATION OF ANDROGEN RECEPTOR” (MONTELINO THERAPEUTICS, INC., priority 2020, published 2023)
# Tests used:
# VCaP = VCaP cell proliferation; format: cell-based, human; settings: androgen-responsive cell line; 1 μM
# [1] = target: T1, estrogen receptor alpha (ER) (Homo sapiens, UniProt P03372); assay: Immunoblot of ER alpha in 22Rv1 cells; format: cell-based; settings: 22Rv1, 24 hours, up to 10 μM
# T1 construct: progesterone receptor (PR) a and b, and estrogen receptor alpha (ER); endogenous in cells; host or cells: 22Rv1
# T1 sequence (P03372 1-595): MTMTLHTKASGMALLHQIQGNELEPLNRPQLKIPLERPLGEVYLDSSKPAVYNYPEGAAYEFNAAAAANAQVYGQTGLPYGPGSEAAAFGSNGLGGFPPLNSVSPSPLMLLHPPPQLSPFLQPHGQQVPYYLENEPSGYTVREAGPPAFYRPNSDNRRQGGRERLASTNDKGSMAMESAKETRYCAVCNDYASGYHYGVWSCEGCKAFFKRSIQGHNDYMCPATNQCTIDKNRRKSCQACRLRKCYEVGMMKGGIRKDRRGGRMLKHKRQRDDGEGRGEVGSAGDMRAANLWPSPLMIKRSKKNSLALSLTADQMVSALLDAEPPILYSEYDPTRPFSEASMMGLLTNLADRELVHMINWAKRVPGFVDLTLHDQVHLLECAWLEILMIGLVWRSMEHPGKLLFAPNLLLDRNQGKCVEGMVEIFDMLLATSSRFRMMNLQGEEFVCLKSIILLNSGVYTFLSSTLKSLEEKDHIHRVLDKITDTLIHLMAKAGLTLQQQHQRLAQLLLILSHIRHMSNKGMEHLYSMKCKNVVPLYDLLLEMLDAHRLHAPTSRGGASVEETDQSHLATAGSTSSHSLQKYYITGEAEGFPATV
# Procedure: Cell Culture. Human CaP cell lines, LNCaP, 22Rv1, VCaP, PC3, and DU145 are obtained from the American Type Culture Collection (ATCC) and maintained in the standard culture media: RPMI-1640 supplemented with 10% fetal bovine serum (FBS). LNCaP, 22Rv1, and VCaP are androgen-responsive cell lines, while PC3 and DU145 are not. To establish SAT resistant CaP cell lines, LNCaP, 22Rv1, and VCaP are treated continuously with 10-50 μM abiraterone, apalutamide, darolutamide, or enzalutamide. After 3-6 months, stable cell lines are established and designated as LNCaP-Abi^R, LNCaP-Apa^R, LNCaP-Daro^R, LNCaP-Enz^R, VCaP-Abi^R, VCaP-Apa^R, VCaP-Daro^R, VCaP-Enz^R, 22Rv1-Abi^R, 22Rv1-Apa^R, 22Rv1-Daro^R and 22Rv1-Enz^R. Unless otherwise specified, the standard culture media for these SAT-resistant cell lines included 10 μM of their respective SAT. For the proteasome inhibitor study, the inhibitors MG132 and Epoxomicin are used. The E3 ligase inhibitors Heclin, Nutlin 3a, Thalidomide, and VH298 are used. […] Mycoplasma contamination is also assessed using a PCR based detection system.
# Immunoblot Analysis. […] Cell lysates are then centrifuged and protein in the supernatant is quantified. […] Following the incubation with appropriate secondary antibody, immunoblots are analyzed using SuperSignal West Femto Maximum Sensitivity Substrate (ThermoFisher).
# 22Rv1 = assay: LDH assay for non-specific cytotoxicity in 22Rv1; format: cell-based, human; settings: 22Rv1, up to 20 μM, six days (0.01, 0.1, 1, 10 and 20 μM tested)
# Procedure: Apoptosis Assay. An apoptosis assay is carried out using the Thermo Fisher ApoDETECT Annexin V-FITC kit following the protocol recommended by the vendor. Briefly, after treatment with 1 μM of Test Compound for 3 to 24 hours, cells are fixed with 80% ethanol and washed with PBS three times. Then, fixed cells are incubated with Annexin V-FITC in PBS solution for 30 minutes at room temperature. After washing three times with PBS, cells are treated with 300 nM DAPI in PBS for 5 minutes at room temperature. Finally, after washing three times with PBS, mounting solution is added and the cells are visualized using immunofluorescence microscopy. Next, a TUNEL assay is performed using Promega DeadEnd Fluorometric TUNEL system. After treatment with Test Compound and fixation as described above in the Annexin-V experiment, 100 μl of equilibration buffer is incubated for 10 min. Then, 50 μl of TdT reaction mix is added and incubated for 60 min at 37° C. in a humidified chamber. Finally, stop solution is added and samples are mounted on slides using mounting medium. To assess non-specific cytotoxicity, an LDH assay kit is used.
smiles,measurement,setting,value
"Cc1ncsc1-c1ccc([C@H](C)NC(=O)[C@@H]2C[C@@H](O)CN2C(=O)[C@@H](NC(=O)CCCCNC(=O)COc2c(-c3csc(N4CCOCC4)n3)ccc(F)c2F)C(C)(C)C)cc1 [Example 16, (2S,4R)-1-((S)-2-(5-(2-(2,3-difluoro-6-(2-morpholinothiazol-4-yl)phenoxy)acetamido)pentanamido)-3,3-dimethylbutanoyl)-4-hydroxy-N-((S)-1-(4-(4-methylthiazol-5-yl)phenyl)ethyl)pyrrolidine-2-carboxamide]",effect on proliferation of VCaP,VCaP,inhibits the proliferation
same,effect on expression level of estrogen receptor alpha (ER),[1],no visible effect
same,"non-specific cytotoxic effect, lactate dehydrogenase (LDH) assay",22Rv1,no non-specific cytotoxic effect
